Values joined by “and” are separate entries in the source; they are usually repeats but may differ in a detail not shown here. Equal entries are not always repeated. Where two headings read alike, the source gives them in different places. Where a SMILES comes first, the peptide text is derived from it. [ ]: non-standard residue; d: D form. The star is where a group is joined. DOTA = O=C(O)CN1CCN(CC(=O)O)CCN(CC(=O)*)CCN(CC(=O)O)CC1; 1Nal = N[C@@H](Cc1cccc2ccccc12)C(=O)O; NMeNle = CCCC[C@H](NC)C(=O)O
Legend:
[1] = Metabolic stability in vivo and radiometabolites (radio-HPLC of blood, urine, liver, kidney); design: species or system BALB/c mice
Description: (§1) Metabolic biodistribution studies were performed in accordance with the ethical standards of the institution and approved by the Austrian Ministry of Science (BMWFW-66.011/0072-V/3b/2019). These studies were carried out in 5- to 7-week-old female BALB/c mice (n = 3) injected with [^177Lu]Lu-1 via a lateral tail vein. To allow monitoring of the metabolites by radio-HPLC, mice were injected with 30 MBq corresponding to 0.8 nmol total peptide. The mice were euthanized by cervical dislocation after different time points of 10 min, 30 min and 1 h p.i. and the urine and a venous blood sample were collected at the time of sacrifice. Liver and kidneys were dissected and homogenized in 20 mM HEPES buffer pH 7.3 at a ratio of 1:1 (v/v) with an Ultra-Turrax T8 homogenizer (IKA-Werke, Staufen, Germany) for 1 min at RT. Before radio-HPLC analysis, the samples (except urine) were treated with ACN at a ratio of 1:1 (v/v) to precipitate proteins, centrifuged at 2000× g for 2 min and diluted with water at a ratio of 1:1 (v/v). For HPLC analysis of the samples, the analytical HPLC system described above with a flow rate of 1 mL/min was used together with the following optimized water/ACN/0.1% TFA gradient to allow a better separation of [^177Lu]Lu-1 and the different radiometabolites: 0–7 min 1–7% ACN, 7–8 min 7–10% ACN, 8–18 min 10–18% ACN, 18–20 min 18–32% ACN, 20–27 min 32% ACN, 27–37 min […], 37–40 min 80% ACN, 40–40.1 min 80–1% ACN, 40.1–45 min 1% ACN. Urine was measured with the low-sensitivity loop of the radiodetector. The remaining samples were analyzed with the high-sensitivity loop due to the lower radioactivity present in blood, liver and kidney homogenate. To quantify the percentage of intact [^177Lu]Lu-1 and [^177Lu]Lu-M1 showing some overlap in the radiochromatogram when using the high-sensitivity loop of the radiodetector, the two radiopeptides were co-injected at different known ratios to enable a more accurate separation and integration of the two peaks (see supporting Figure S4). Mice from the metabolic biodistribution studies were subjected to a further dissection of all remaining tissues (blood, lung, heart, femur, spleen, muscle, intestine, pancreas and stomach). All organs, also including liver and kidneys, were weighed, and their radioactivity was measured in the gamma counter together with a standard and the residual body. To quantify the uptake of radioactivity in liver and kidneys, a part of liver and kidney homogenate was measured in the gamma counter to extrapolate the radioactivity for the whole organ.

[2] = Biodistribution in BALB/c mice; type: in vivo; conditions: for tissue uptake at 0.5 h / tissue uptake at 1 h / tissue uptake at 10 min: female, BALB/c, mouse, iv, total radioactivity; for tissue uptake at 0.5 h: 30 min p.i.; for tissue uptake at 1 h: 1 h p.i.
Description: as §1

[3] = Stability in fresh human serum (radio-HPLC); type: in vitro ADME; conditions: 24 h incubation, 37 °C
Description: (§2) In vitro stability studies for the characterization of the metabolic stability of the radiolabeled peptide analogs in human serum were carried out with [^177Lu]Lu-1, [^177Lu]Lu-M1, [^177Lu]Lu-M2, [^177Lu]Lu-M3 and [^177Lu]Lu-M4 (n = 2). Additional stability studies in rat liver and kidney homogenates were performed for [^177Lu]Lu-1 (n = 2). Tissue homogenates were prepared from dissected organs by homogenization for 1 min at RT (IKA-Werke, Staufen, Germany) in 20 mM HEPES buffer pH 7.3 (30% v/v). The radioligands were incubated in the different media at a concentration of 500 pmol/mL (corresponding to an activity of 6–11 MBq). After incubation at 37 °C at different time points for up to 24 h, a 100 µl sample was taken in duplicates and analyzed by HPLC. Samples obtained from human serum and rat homogenates were treated with ACN at a ratio of 1:1.5 (v/v) to precipitate proteins, centrifuged (14,000 rpm, 2 min, centrifuge 5424, Eppendorf AG, Germany) and diluted with water at a ratio of 1:1 (v/v). A 100 µl aliquot of this solution was injected into the radio HPLC system. The degradation of the radioligand was evaluated based on the radiochemical purity after radiolabeling and the percentage of intact radiopeptide observed during incubation in the different media.

[4] = Protein binding in human serum by size exclusion chromatography; type: in vitro ADME; conditions: 24 h incubation
Description: For protein binding assessment, the radiolabeled DOTA-peptides were incubated in fresh human serum at 37 °C (500 pmol/mL, n = 2). After 1, 4 and 24 h of incubation, two samples were taken for each time point and analyzed by Sephadex G-50 size-exclusion chromatography (GE Healthcare Illustra, Little Chalfont, UK). The percentage of protein binding was determined by measuring the column and the eluate with the gamma-counter.

[5] = Distribution coefficient (logD) in octanol/PBS; type: physicochemical; conditions: octanol/PBS pH 7.4; read-out: logD
Description: The mixture was vigorously vortexed at room temperature over a period of 15 min using a small shaker (MS3 Basic, IKA, Staufen, Germany) with speed of 1500 rpm.

[6] = Stability in rat liver homogenate; type: in vitro ADME
Description: as §2

[7] = blood, 30 MBq, read-out: uptake in blood
[8] = femur, 30 MBq, read-out: uptake in femur
[9] = heart, 30 MBq, read-out: uptake in heart
[10] = intestine, 30 MBq, read-out: uptake in intestine
[11] = kidneys, 30 MBq, read-out: uptake in kidneys
[12] = liver, 30 MBq, read-out: uptake in liver
[13] = lung, 30 MBq, read-out: uptake in lung
[14] = muscle, 30 MBq, read-out: uptake in muscle
[15] = pancreas, 30 MBq, read-out: uptake in pancreas
[16] = spleen, 30 MBq, read-out: uptake in spleen
[17] = stomach, 30 MBq, read-out: uptake in stomach

- total amount of radiometabolites ([1]; blood, 10 min p.i.): 19.5%
- total amount of radiometabolites ([1]; blood, 30 min p.i.): 35.9%
- percentage of intact radiopeptide / radiometabolite ([1]; blood, 30 min p.i., mice injected i.v. with [177Lu]Lu-1): 64.1%
- total amount of radiometabolites ([1]; blood, 60 min p.i.): 43.1%
- percentage of intact radiopeptide / radiometabolite ([1]; blood, 60 min p.i., mice injected i.v. with [177Lu]Lu-1): 56.9%
- percentage of intact radiopeptide / radiometabolite ([1]; kidney homogenate soluble phase, 10 min p.i.): 29.7%
- percentage of intact radiopeptide / radiometabolite ([1]; kidney, 30 min p.i.): 18.0%
- percentage of intact radiopeptide / radiometabolite ([1]; kidney, 60 min p.i.): 7.0%
- intact radiopeptide ([1]; kidneys and urine, studied time points): < 30%
- percentage of intact radiopeptide / radiometabolite ([1]; liver homogenate soluble phase, 10 min p.i.): 71.9%
- percentage of intact radiopeptide / radiometabolite ([1]; liver, 30 min p.i.): 53.9%
- percentage of intact radiopeptide / radiometabolite ([1]; liver, 60 min p.i.): 47.7%
- percentage of intact radiopeptide / radiometabolite ([1]; urine, 10 min p.i.): 29.1% and 29%
- percentage of intact radiopeptide / radiometabolite ([1]; urine, 30 min p.i.): 19.4%
- percentage of intact radiopeptide / radiometabolite ([1]; urine, 60 min p.i.): 18%
- whole body activity ([2]; 10 min p.i.): 61.78 % IA
- whole body activity ([2]; 1 h after injection): 12.27 % IA
- tissue uptake at 0.5 h [2, 7]: 5.08 %ID/g
- tissue uptake at 1 h [2, 7]: 2.05 %ID/g
- tissue uptake at 10 min ([2]; blood, 10 min p.i., 30–40 MBq, 0.8 nmol, read-out: uptake in blood): 17.8 %ID/g
- tissue uptake at 10 min ([2]; femur, 30 MBq, 10 min p.i., read-out: uptake in femur): 5.97 %ID/g
- tissue uptake at 0.5 h [2, 8]: 1.28 %ID/g
- tissue uptake at 1 h [2, 8]: 0.52 %ID/g
- tissue uptake at 10 min ([2]; heart, 30 MBq, 10 min p.i., read-out: uptake in heart): 7.13 %ID/g
- tissue uptake at 0.5 h [2, 9]: 2.72 %ID/g
- tissue uptake at 1 h [2, 9]: 0.99 %ID/g
- tissue uptake at 10 min ([2]; intestine, 30 MBq, 10 min p.i., read-out: uptake in intestine): 2.63 %ID/g
- tissue uptake at 0.5 h [2, 10]: 1.61 %ID/g
- tissue uptake at 1 h [2, 10]: 1.02 %ID/g
- tissue uptake at 10 min ([2]; kidneys, 30 MBq, 10 min p.i., read-out: uptake in kidneys): 14.5 %ID/g
- tissue uptake at 0.5 h [2, 11]: 10.8 %ID/g
- tissue uptake at 1 h [2, 11]: 7.01 %ID/g
- tissue uptake at 10 min ([2]; liver, 30 MBq, 10 min p.i., read-out: uptake in liver): 5.37 %ID/g
- tissue uptake at 0.5 h [2, 12]: 2.95 %ID/g
- tissue uptake at 1 h [2, 12]: 1.26 %ID/g
- tissue uptake at 10 min ([2]; lung, 30 MBq, 10 min p.i., read-out: uptake in lung): 17.4 %ID/g
- tissue uptake at 0.5 h [2, 13]: 5.03 %ID/g
- tissue uptake at 1 h [2, 13]: 1.95 %ID/g
- tissue uptake at 10 min ([2]; muscle, 30 MBq, 10 min p.i., read-out: uptake in muscle): 2.56 %ID/g
- tissue uptake at 0.5 h [2, 14]: 1.03 %ID/g
- tissue uptake at 1 h [2, 14]: 0.36 %ID/g
- tissue uptake at 10 min ([2]; pancreas, 30 MBq, 10 min p.i., read-out: uptake in pancreas): 3.39 %ID/g
- tissue uptake at 0.5 h [2, 15]: 1.76 %ID/g
- tissue uptake at 1 h [2, 15]: 0.84 %ID/g
- tissue uptake at 10 min ([2]; spleen, 30 MBq, 10 min p.i., read-out: uptake in spleen): 3.7 %ID/g
- tissue uptake at 0.5 h [2, 16]: 2 %ID/g
- tissue uptake at 1 h [2, 16]: 0.79 %ID/g
- tissue uptake at 10 min ([2]; stomach, 30 MBq, 10 min p.i., read-out: uptake in stomach): 3.36 %ID/g
- tissue uptake at 0.5 h [2, 17]: 2.29 %ID/g
- tissue uptake at 1 h [2, 17]: 1.39 %ID/g
- washout at 1 h versus 10 min p.i. ([2]; non-excretory organs (blood, lung, heart, femur, spleen and muscle)): 79–91%
- percentage decrease of radioactivity at 1 h versus 10 min p.i. ([2]; pancreas): 75%
- percentage decrease of radioactivity at 1 h versus 10 min p.i. ([2]; stomach): 59%
- intact radiopeptide [3]: 96.2 ± 1.3%
- fraction unbound [4]: 0.622
- logD [5]: -1.96 ± 0.07
- intact radiopeptide ([6]; 30 min): 83.6 ± 0.2% and 84%
- intact radiopeptide ([6]; 2 h): 52.9 ± 2.0% and > 50%
- intact radiopeptide ([6]; 24 h): 49.3 ± 1.7%
- intact radiopeptide ([6]; up to 20 min incubation): > 90%
SMILES: CCCC[C@@H](C(=O)N[C@@H](CC(=O)O)C(=O)N[C@@H](Cc1cccc2ccccc12)C(N)=O)N(C)C(=O)[C@H](Cc1c[nH]c2ccccc12)NC(=O)CNC(=O)[C@H](Cc1ccc(O)cc1)NC(=O)[C@@H]1CCCN1C(=O)[C@@H](CCC(=O)O)NC(=O)CN1CCN(CC(=O)O)CCN(CC(=O)O)CCN(CC(=O)O)CC1 [[^177Lu]Lu-1, metal not drawn] ({DOTA}-[dE]PYGW[NMeNle]D[1Nal]-NH2)

Source: paper PMC7583830 (Molecules, 2020)
